Experiment: xn = mol fraction of the nth substance listed, in the solute-free solvent

CN1CCN(C2=Nc3cc(Cl)ccc3Nc3ccccc32)CC1 + CS(C)=O + O
solubility (g/100 g solution)
Conditions	293.15 K	298.15 K	303.15 K	308.15 K	313.15 K	318.15 K	323.15 K	328.15 K	333.15 K
x2 = 0.02501	0.0367	0.0478	0.0615	0.0795	0.0996	0.126	0.159	0.2	0.249
x2 = 0.05457	0.375	0.473	0.591	0.724	0.873	1.06	1.28	1.54	1.84
x2 = 0.09003	1.33	1.64	1.96	2.36	2.78	3.26	3.88	4.56	5.3
x2 = 0.1334	3.26	3.82	4.52	5.18	6.01	6.93	8.01	9.03	10.2
x2 = 0.1876	5.71	6.6	7.64	8.74	9.88	11.3	12.7	14.2	15.7
x2 = 0.2572	9.16	10.5	12.1	13.6	15.4	17.2	19.1	21.3	23.4
x2 = 0.3501	12.9	14.6	16.6	18.6	20.7	23.1	25.5	27.9	30.5
x2 = 0.4801	16.2	18.2	20.4	22.7	25.2	27.9	30.6	33.4	36.3
x2 = 0.6751	18.4	20.7	23.2	25.8	28.6	31.3	34.3	37.4	40.4

Reference: the CheMixHub drug solubility set
